For this experiment, the system named is diabetic nephropathy. The experiment is described as follows: Treatment of patient with diabetic nephropathy (Working Example IV). The conditions noted are these: person, creatinine of 3 at start; final concentration 6 micromolar; follow up 2 months later. The format is in vivo, human. The text has this: A person with diabetic nephropathy and creatinine of 3 is started on compound 6 at a final concentration of 6 micromolar and at follow up 2 months later, the creatinine is 2.

Structures are written as SMILES.

Results on one compound are retold here after US20100286174A1, “INHIBITING GSNOR” (Duke University, priority 2009, published 2010).

For the compound `CC(=O)CCc1ccc(-c2ccccc2)n1-c1ccc(C(C)=O)cc1` [compound 6], the creatinine is listed as 2.
